Data as given in patent US20100184596A1, “METHOD FOR THE CONTROL OF WEEDS IN TURF” (SYNGENTA CROP PROTECTION, INC., priority 2007, published 2010).

What was measured:
Type in all cases: in vivo
Tall fescue v. Coronado = experiment: Phytotoxicity of granule formulations with safeners (Table B4.4); settings: 8 DAT
Method: (§1) The phytotoxicity to turfgrass of the compound of formula I in combination with various safeners was tested. The combinations were applied by post emergence spray application. Percentage phytotoxicity assessments were taken at various timepoints. The safeners tested in these trials were cloquintocet-mexyl, cyprosulfamide, a compound of formula 2.3, and isoxadifen-ethyl.
Tables B4.4 and B4.5 present the results of trials using safeners applied in combination with granule formulations of the compound of formula I.

[1] = system: St. Augustinegrass v. Floratam; experiment: Phytotoxicity in combination with safeners, post emergence spray (Table B4.2); settings: no safener, 100 g ai/ha
Method: as §1

[2] = system: Bermudagrass v. Tifway 419; experiment: Phytotoxicity in combination with safeners, post emergence spray (Table B4.3); settings: no safener, 100 g ai/ha
Method: as §1

COCCOCc1nc(C(F)(F)F)ccc1C(=O)C1=C(O)C2CCC(C2)C1=O (stereo not drawn) [Formula I, 4-Hydroxy-3-[2-(2-methoxyethoxymethyl)-6-trifluoromethylpyridine-3-carbonyl]-bicyclo[3.2.1]oct-3-en-2-one]
% phytotoxicity (Tall fescue v. Coronado; DG Lite granule, no safener, 680 g ai/ha): 20.0%
% phytotoxicity (Tall fescue v. Coronado; DG Lite granule, safener Cyprosulfamide (0.07%), 680 g ai/ha): 22.5%
% phytotoxicity (Tall fescue v. Coronado; DG Lite granule, safener Formula 2.3 (0.07%), 680 g ai/ha): 16.3%
% phytotoxicity (Tall fescue v. Coronado; DG Lite granule, safener Isoxadifen (0.07%), 680 g ai/ha): 21.3%
% phytotoxicity (Tall fescue v. Coronado; Spray, no safener, 340 g ai/ha): 18.8%
% phytotoxicity ([1]; 9 DAT): 46.70%
% phytotoxicity ([1]; 13 DAT): 50.00%
% phytotoxicity ([1]; 19 DAT): 11.70%
% phytotoxicity ([1]; 25 DAT): 5.00%
% phytotoxicity ([2]; 7 DAT): 56.70%
% phytotoxicity ([2]; 11 DAT): 38.30%
% phytotoxicity ([2]; 18 DAT): 9.30%
